Tests used:
Assay in all cases: relative viability (nuclei count vs DMSO), 5 days (fraction); higher = more cells survive
AZD5582 + Alpelisib = compound: C[C@@H](C(=O)N[C@@H](C1CCCCC1)C(=O)N2CCC[C@H]2C(=O)N[C@@H]3[C@@H](CC4=CC=CC=C34)OCC#CC#CCO[C@@H]5CC6=CC=CC=C6[C@@H]5NC(=O)[C@@H]7CCCN7C(=O)[C@H](C8CCCCC8)NC(=O)[C@H](C)NC)NC [AZD5582] + Cc1nc(NC(=O)N2CCC[C@H]2C(N)=O)sc1-c1ccnc(C(C)(C)C(F)(F)F)c1 [Alpelisib] (partner 2 µM)
Summary of the method: (§1)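 Five library-drug doses in √10 steps were combined with a fixed anchor-drug dose, or a single drug was given alone, by pin tool to lung cancer cell lines in 1536-well plates the day after seeding. Nuclei were stained and counted after 5 days. Relative viability is the nuclei count in treated wells over that in vehicle wells, taken as the median of duplicate plates.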

[1] = compound: Cn1nnc2c(C(N)=O)ncn2c1=O [Temozolomide] + Nc1nc2[nH]cc(CCc3ccc(C(=O)N[C@@H](CCC(=O)O)C(=O)O)cc3)c2c(=O)[nH]1 [Pemetrexed] (partner 0.2 µM)
Summary of the method: as §1

AZD5582 = compound: C[C@@H](C(=O)N[C@@H](C1CCCCC1)C(=O)N2CCC[C@H]2C(=O)N[C@@H]3[C@@H](CC4=CC=CC=C34)OCC#CC#CCO[C@@H]5CC6=CC=CC=C6[C@@H]5NC(=O)[C@@H]7CCCN7C(=O)[C@H](C8CCCCC8)NC(=O)[C@H](C)NC)NC [AZD5582]
Summary of the method: (§2)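 In 1536-well plates, lung cancer cell lines rested overnight at 37 °C before five library-drug doses (not always all listed), √10 apart, were pinned onto vehicle-anchored plates. Nuclei were counted with MetaXpress from 4× Hoechst images taken after 5 days without medium change. Viability compares treated-well with vehicle-well nuclei as a median over plates, and plates needed control CV below 25% plus at least one doubling to pass.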

Temozolomide = compound: Cn1nnc2c(C(N)=O)ncn2c1=O [Temozolomide]
Summary of the method: as §2

Cell Line	relative viability (AZD5582 + Alpelisib; first compound 0.001581 µM)	relative viability (AZD5582 + Alpelisib; first compound 0.005 µM)	relative viability (AZD5582 + Alpelisib; first compound 0.01581 µM)	relative viability (AZD5582 + Alpelisib; first compound 0.05 µM)	relative viability ([1]; first compound 0.2 µM)	relative viability ([1]; first compound 0.6325 µM)	relative viability ([1]; first compound 2 µM)	relative viability ([1]; first compound 6.325 µM)	relative viability ([1]; first compound 20 µM)	relative viability (AZD5582; 0.001581 µM)	relative viability (AZD5582; 0.005 µM)	relative viability (AZD5582; 0.01581 µM)	relative viability (AZD5582; 0.05 µM)	relative viability (Temozolomide; 0.2 µM)	relative viability (Temozolomide; 0.6325 µM)	relative viability (Temozolomide; 2 µM)	relative viability (Temozolomide; 6.325 µM)	relative viability (Temozolomide; 20 µM)
NCI-H1563	1.02	0.893	0.858	1.01	0.71	0.798	0.744	0.739	0.747	0.957	0.936	0.836	1.07	0.903	0.937	0.999	0.99	0.993
LOU-NH91	0.752	0.747	0.787	0.775	0.389	0.366	0.371	0.395	0.458	0.924	0.944	0.882	0.925	0.856	0.979	0.993	0.926	0.786
NCI-H596	0.554	0.33	0.538	0.304	0.515	0.535	0.621	0.465	0.574	0.84	–	0.999	0.358	0.932	0.953	1.01	0.925	0.959
NCI-H2405	0.913	1.07	–	0.933	1.08	1.03	1.14	1.03	0.965	1	1.12	0.957	1.02	1.05	1	1.06	0.935	0.978
PC-3 [JPC-3]	0.889	0.966	0.999	0.703	1.22	1.13	1.16	1.06	0.458	0.885	0.898	0.9	0.531	0.954	1.08	1.09	1.06	0.451
NCI-H1666	0.851	0.833	1.08	1.03	0.736	0.895	0.963	0.877	0.767	0.886	0.953	0.971	0.94	0.92	0.994	0.906	0.751	0.76
COR-L 105	0.961	0.847	0.981	1.49	1.12	1.07	1.02	1.06	1.06	0.936	1.11	0.876	1.02	0.895	1.02	0.993	0.883	0.507
NCI-H2085	1	0.987	0.928	1.01	1.04	0.951	0.979	0.926	0.744	1.05	1.08	0.998	0.993	1	1.02	1.02	0.964	0.949
SK-MES-1	0.773	0.995	0.808	0.947	1.01	0.911	0.975	0.92	0.866	0.943	1.15	0.972	1.09	1.13	1.02	1.06	1.05	0.889
NCI-H1734	0.729	0.761	0.705	0.903	0.398	0.422	0.431	0.394	0.386	0.968	1.11	1.03	1.23	1.12	1.05	1.06	0.932	0.976
NCI-H520	0.97	0.89	0.838	1.07	0.723	0.595	0.711	0.631	0.74	0.955	1.05	0.947	1.1	1.06	0.999	1.13	0.981	0.97
LK-2	1.05	1.15	1.28	1.33	0.284	0.288	0.299	0.264	0.277	0.766	1.07	0.876	1.23	0.997	1.06	0.961	0.645	0.407
LXF-289	1	1.04	0.988	1.07	0.941	0.877	0.868	0.857	0.868	0.958	1.01	0.968	1	1.04	0.959	1.01	1.03	0.892
EMC-BAC-2	0.702	0.628	0.721	0.316	0.468	0.445	0.485	0.415	0.509	0.835	0.993	0.791	0.891	1.07	1.07	1.03	0.943	1
201T	1.05	1.07	0.977	1.25	0.346	0.345	0.398	0.339	0.316	1.03	1.15	0.971	1.21	0.978	1	1.01	0.961	0.977
RERF-LC-KJ	–	0.532	0.781	0.639	0.484	0.507	0.486	0.464	0.461	0.715	0.668	0.912	0.802	0.982	1	1.04	0.978	1.01
SW 1573	0.856	0.705	0.673	1.01	0.907	0.833	0.845	0.867	0.846	0.939	1.04	1.03	1.13	0.998	0.992	1.07	0.948	0.971

Cell Line	relative viability (AZD5582 + Alpelisib; first compound 0.001581 µM)	relative viability (AZD5582 + Alpelisib; first compound 0.005 µM)	relative viability (AZD5582 + Alpelisib; first compound 0.01581 µM)	relative viability (AZD5582 + Alpelisib; first compound 0.05 µM)	relative viability ([1]; first compound 0.2 µM)	relative viability ([1]; first compound 0.6325 µM)	relative viability ([1]; first compound 2 µM)	relative viability ([1]; first compound 6.325 µM)	relative viability ([1]; first compound 20 µM)	relative viability (AZD5582; 0.001581 µM)	relative viability (AZD5582; 0.005 µM)	relative viability (AZD5582; 0.01581 µM)	relative viability (AZD5582; 0.05 µM)	relative viability (Temozolomide; 0.2 µM)	relative viability (Temozolomide; 0.6325 µM)	relative viability (Temozolomide; 2 µM)	relative viability (Temozolomide; 6.325 µM)	relative viability (Temozolomide; 20 µM)
NCI-H2347	0.901	1.05	0.975	0.991	0.466	0.447	0.429	0.426	0.461	0.956	1.03	0.919	0.979	1.06	1.16	1.08	0.979	0.976
NCI-H2126	0.785	0.766	0.695	0.762	0.573	0.653	0.762	0.666	0.67	0.93	1.04	0.808	0.901	0.957	1.03	1.05	0.98	1.03
NCI-H1792	0.616	0.738	0.651	0.939	1.11	0.993	0.954	0.819	1.01	0.754	0.971	0.712	1.21	1.22	1.02	1.07	0.854	1.07
SK-LU-1	0.744	0.554	0.95	0.243	1.06	1.01	0.875	0.495	0.522	0.888	0.777	0.939	0.47	1.09	1.03	0.899	0.554	0.467
NCI-H1437	0.968	0.967	0.875	1.04	0.31	0.317	0.376	0.316	0.277	0.915	1	0.979	0.983	0.998	1.01	0.997	1.04	1.02
LCLC-103H	0.97	1.23	0.471	0.64	0.467	0.461	0.519	0.465	0.515	1.02	1.14	0.852	1.01	0.995	1	1.06	0.928	0.92
NCI-H647	0.957	0.943	1.19	1.11	0.169	0.17	0.2	0.146	0.122	0.904	0.971	0.865	0.957	1	1.01	0.906	0.684	0.265
LC-2-ad	0.911	0.98	0.834	1.11	0.281	0.296	0.279	0.291	0.287	0.997	1.09	0.965	1.03	1.06	1.09	1.04	0.971	0.78
NCI-H2087	1.08	1.01	1.13	1.19	0.624	0.667	0.663	0.676	0.696	0.98	1.12	0.982	1.03	1.31	1.12	1.07	0.937	1.01
NCI-H1944	0.834	1.05	0.793	1.11	0.546	0.601	0.564	0.58	0.623	0.867	1.04	0.921	1.01	0.946	0.959	1.04	0.919	0.816
COR-L23	0.73	0.801	0.799	0.875	0.188	0.211	0.19	0.184	0.217	1.02	1.11	0.966	1.03	1.19	1.04	1.05	1.04	0.955
HCC-78	0.298	0.395	0.307	0.3	0.896	0.921	0.927	–	0.958	0.85	1.08	0.834	0.746	0.762	0.937	1.04	0.906	0.931
UMC-11	1.05	1.11	0.968	1.08	0.758	0.712	0.835	0.805	0.588	0.887	1.01	0.96	1.03	0.994	1.06	1.05	0.858	0.677
NCI-H2023	0.562	0.538	0.567	0.609	0.232	0.249	0.249	0.221	0.228	0.842	0.962	0.84	0.934	0.979	0.943	1.01	0.984	0.941
NCI-H1915	1.01	1.06	1.09	1.13	0.55	0.491	0.545	0.429	0.321	0.899	1	0.805	0.947	1.09	0.987	0.946	0.602	0.386
PC-14	0.834	1.03	0.927	0.971	0.138	0.12	0.138	0.145	0.14	0.859	1.03	0.926	0.932	1.07	1.03	0.994	0.944	0.529
LCLC-97TM1	–	0.269	0.226	0.23	0.195	0.198	0.177	0.156	0.209	0.797	1.06	0.644	0.525	1.15	0.985	0.764	0.83	1.1
